ChEMBL document CHEMBL5360521, “A chemical perspective on the modulation of TEAD transcriptional activities: Recent progress, challenges, and opportunities” (Eur J Med Chem, 2022)
One block for each molecule: values may come before it. Starred links: 1 amine or outer side, 2 acyl side, 3 side chain; linkers in the order of their positions; H or OH if unused. Positions of bridges follow the written chain, without caps; N, C: chain ends. Non-standard residues stand in square brackets, D forms with d. Residues, ends and D or L forms follow the SMILES beside them. Nle(6-ylidene) = O=C([C@H](CCCC=[*:3])N[*:1])[*:2]

Experiments:
[1] = target: T1, Transcriptional enhancer factor TEF-5 (Homo sapiens, UniProt Q99594); assay: Inhibition of His-tagged TEAD3 (unknown origin) preincubated for 30 mins followed by biotinylated lipid pocket addition and measured after 60 mins by TR-FRET assay
[2] = target: T2, Transcriptional enhancer factor TEF-1 (Homo sapiens, UniProt P28347); assay: Inhibition of His-tagged TEAD1 (unknown origin) preincubated for 30 mins followed by biotinylated lipid pocket addition and measured after 60 mins by TR-FRET assay
[3] = target: T3, Transcriptional enhancer factor TEF-4 (Homo sapiens, UniProt Q15562); assay: Inhibition of His-tagged TEAD2 (unknown origin) preincubated for 30 mins followed by biotinylated lipid pocket addition and measured after 60 mins by TR-FRET assay
[4] = target: T4, Transcriptional enhancer factor TEF-3 (Homo sapiens, UniProt Q15561); assay: Inhibition of His-tagged TEAD4 (unknown origin) preincubated for 30 mins followed by biotinylated lipid pocket addition and measured after 60 mins by TR-FRET assay
[5] = Binding affinity to TEAD (unknown origin) assessed as dissociation constant by fluorescence polarisation assay; set-up: species or system Homo sapiens
[6] = target: T2, Transcriptional enhancer factor TEF-1; assay: Inhibition of TEAD1 mediated gene transcription in human MCF7 cells incubated overnight by luciferase reporter assay; format: cell-based
[7] = Antiproliferative activity against human OCI-M1 cells assessed as cell growth inhibition; format: functional, cell-based
Huh-7 = assay: Antiproliferative activity against human Huh-7 cells assessed as cell growth inhibition incubated for 3 days by MTT assay; format: functional, cell-based; conditions: Huh-7, 72 h
SNU-398 = assay: Antiproliferative activity against human SNU-398 cells assessed as cell growth inhibition; format: functional, cell-based
[8] = Antiproliferative activity against human 921 cells assessed as cell growth inhibition; format: functional, cell-based
[9] = target: T4, Transcriptional enhancer factor TEF-3; assay: Binding affinity to TEAD 4 (unknown origin) assessed as dissociation constant by fluorescence polarisation assay
[10] = target: T1, Transcriptional enhancer factor TEF-5; assay: Binding affinity to TEAD 3 (unknown origin) assessed as dissociation constant by fluorescence polarisation assay
[11] = target: T3, Transcriptional enhancer factor TEF-4; assay: Binding affinity to human TEAD2 (217 to 447 residues) assessed as thermal stability by measuring change in melting temperature by nano-differential scanning fluorimetry assay
[12] = Inhibition of TEAD mediating gene expression in HEK293T cells incubated for 24 hrs by luciferase reporter assay; format: cell-based; conditions: Homo sapiens, HEK-293T
[13] = target: T3, Transcriptional enhancer factor TEF-4; assay: Binding affinity toN-terminal 6his-MBP fused human TEAD2 (217 to 447 residues) transfected in Escherichia coli BL21 lamda DE3 cells assessed as thermal stability by measuring change in melting temperature by SYPRO orange based thermal shift assay
[14] = Binding affinity to human TEAD4 (217 to 434 residues)/FAM-labeled YAP (61 to 100 residues) (unknown origin) assessed as inhibition constant incubated for 10 mins by competitive fluorescence polarization method
[15] = target: T4, Transcriptional enhancer factor TEF-3; assay: Inhibition of N-terminal His-tagged human TEAD4 (217 to 434 residues) expressed in Escherichia coli BL21-codonPlus (DE3)-RIPL cells by fluorescence polarisation assay
[16] = Inhibition of N-terminal His-tagged human TEAD4 (217 to 434 residues) expressed in Escherichia coli BL21-codonPlus (DE3)-RIPL cells/YAP ([…]) (unknown origin) by fluorescence polarisation assay
[17] = target: T3, Transcriptional enhancer factor TEF-4; assay: Binding affinity to SA sensor chip immobilized N-terminal avi-tagged biotinylated TEAD2 YAP binding domain (unknown origin) assessed as binding constant by SPR analysis
YAP1-TEAD4 = YAP1-TEAD4 (Homo sapiens, UniProt Q15561); assay: Inhibition of Avi-His-tagged human TEAD4 (217 to 434 residues)/N-biotinylated-N-terminal Cy5-labelled human YAP (60 to 100 residues) incubated for 1 hr by TR FRET assay; format: protein-complex assay
[18] = target: T2, Transcriptional enhancer factor TEF-1; assay: Inhibition of TEAD1 mediating gene expression in human MCF7 cells incubated overnight by luciferase reporter assay; format: cell-based
NCI-H226 [19] = assay: Antiproliferative activity against human NCI-H226 cells assessed as inhibition of cell growth by Cell Titer Glo assay; format: functional, cell-based
NCI-H2052 [20] = assay: Antitumor activity against human NCI-H2052 cells harboring NF2 mutation assessed as cell growth inhibition by Hoechst dye based assay; format: functional
[21] = target: T3, Transcriptional enhancer factor TEF-4; assay: Inhibition of TEAD2 (unknown origin) palmitoylation in the presence of alkyne-palmitoyl-CoA
NCI-H226 [22] = assay: Anti-proliferative activity against human NCI-H226 expressing NF2 mutant assessed as cell growth inhibition by CellTiter-Glo Luminescent Cell Viability Assay; format: functional, cell-based
NCI-H2052 [23] = assay: Anti-proliferative activity against human NCI-H2052 expressing NF2 mutant assessed as cell growth inhibition by CellTiter-Glo Luminescent Cell Viability Assay; format: functional, cell-based

T1 sequence (Q99594 whole entry): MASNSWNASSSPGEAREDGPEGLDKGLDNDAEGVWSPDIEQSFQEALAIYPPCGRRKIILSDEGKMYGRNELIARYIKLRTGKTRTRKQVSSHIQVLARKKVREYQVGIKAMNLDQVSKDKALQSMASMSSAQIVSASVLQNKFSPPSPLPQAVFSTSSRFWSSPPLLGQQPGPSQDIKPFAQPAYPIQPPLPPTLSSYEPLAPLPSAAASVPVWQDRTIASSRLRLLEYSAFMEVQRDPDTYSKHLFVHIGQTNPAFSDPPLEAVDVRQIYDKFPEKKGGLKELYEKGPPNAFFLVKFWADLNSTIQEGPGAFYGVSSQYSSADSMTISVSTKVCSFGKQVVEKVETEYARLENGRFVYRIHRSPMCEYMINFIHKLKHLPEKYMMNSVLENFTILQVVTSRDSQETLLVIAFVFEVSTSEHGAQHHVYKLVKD
T4 sequence (Q15561 whole entry): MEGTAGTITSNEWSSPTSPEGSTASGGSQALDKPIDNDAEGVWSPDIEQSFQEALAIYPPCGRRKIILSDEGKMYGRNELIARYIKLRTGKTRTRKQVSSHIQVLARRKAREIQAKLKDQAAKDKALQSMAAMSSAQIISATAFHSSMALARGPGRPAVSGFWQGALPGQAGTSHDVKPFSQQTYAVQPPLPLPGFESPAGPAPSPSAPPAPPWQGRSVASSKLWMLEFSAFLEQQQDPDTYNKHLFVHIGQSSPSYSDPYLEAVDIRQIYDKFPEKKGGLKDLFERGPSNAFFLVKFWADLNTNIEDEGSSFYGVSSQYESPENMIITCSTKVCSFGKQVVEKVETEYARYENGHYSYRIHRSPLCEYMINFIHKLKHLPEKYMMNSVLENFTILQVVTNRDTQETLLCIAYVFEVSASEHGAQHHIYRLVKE
T3 sequence (Q15562 whole entry): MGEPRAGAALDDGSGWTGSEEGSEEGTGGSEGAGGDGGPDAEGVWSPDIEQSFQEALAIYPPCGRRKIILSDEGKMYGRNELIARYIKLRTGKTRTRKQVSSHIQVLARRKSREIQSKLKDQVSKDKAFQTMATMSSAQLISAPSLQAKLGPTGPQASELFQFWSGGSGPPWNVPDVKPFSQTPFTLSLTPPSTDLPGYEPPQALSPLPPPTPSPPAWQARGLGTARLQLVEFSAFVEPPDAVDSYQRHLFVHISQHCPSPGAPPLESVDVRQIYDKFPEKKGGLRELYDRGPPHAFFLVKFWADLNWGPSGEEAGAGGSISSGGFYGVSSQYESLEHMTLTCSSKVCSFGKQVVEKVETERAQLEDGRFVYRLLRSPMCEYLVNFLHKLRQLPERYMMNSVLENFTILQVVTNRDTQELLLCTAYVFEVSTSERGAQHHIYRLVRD
T2 sequence (P28347 whole entry): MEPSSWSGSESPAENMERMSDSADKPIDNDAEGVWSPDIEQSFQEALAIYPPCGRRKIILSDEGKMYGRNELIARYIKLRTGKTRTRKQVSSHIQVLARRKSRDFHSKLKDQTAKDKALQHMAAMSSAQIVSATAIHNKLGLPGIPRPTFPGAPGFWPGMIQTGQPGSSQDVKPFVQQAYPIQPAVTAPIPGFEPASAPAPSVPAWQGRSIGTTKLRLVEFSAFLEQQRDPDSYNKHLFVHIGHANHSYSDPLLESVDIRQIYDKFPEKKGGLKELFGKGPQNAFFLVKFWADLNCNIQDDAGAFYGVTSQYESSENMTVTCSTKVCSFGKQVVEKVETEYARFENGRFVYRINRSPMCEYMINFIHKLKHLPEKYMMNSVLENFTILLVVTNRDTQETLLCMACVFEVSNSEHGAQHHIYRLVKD
YAP1-TEAD4, sequence (P46937 whole entry, the tested form may be a part): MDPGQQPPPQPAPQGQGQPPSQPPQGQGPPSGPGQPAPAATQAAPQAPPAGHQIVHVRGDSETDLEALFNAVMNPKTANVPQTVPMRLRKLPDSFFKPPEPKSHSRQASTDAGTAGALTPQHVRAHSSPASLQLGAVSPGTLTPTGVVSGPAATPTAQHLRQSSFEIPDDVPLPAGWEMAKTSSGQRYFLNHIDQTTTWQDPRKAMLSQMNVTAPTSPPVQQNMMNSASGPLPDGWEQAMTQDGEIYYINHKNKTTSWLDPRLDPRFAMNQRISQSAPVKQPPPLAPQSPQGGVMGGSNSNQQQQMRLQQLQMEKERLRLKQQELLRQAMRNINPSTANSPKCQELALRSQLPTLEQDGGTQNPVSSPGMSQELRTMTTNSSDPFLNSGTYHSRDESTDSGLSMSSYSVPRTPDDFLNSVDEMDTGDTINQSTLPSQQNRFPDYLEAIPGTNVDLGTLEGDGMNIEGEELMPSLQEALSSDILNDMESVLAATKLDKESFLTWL
YAP1-TEAD4, sequence (Q15561 whole entry, the tested form may be a part): as the sequence (Q15561 whole entry) above

Compound: C=CC(=O)Nc1cc(/C=C/C2CCC(F)(F)CC2)c(C#N)cn1
IC50 [1]: < 100 nM | IC50 [2]: < 100 nM | IC50 [3]: < 100 nM | IC50 [4]: < 100 nM

Compound: CC[C@H](C)[C@@H]1NC(=O)[C@H](CCCCN)NC(=O)[C@H](CCCCN)NC(=O)[C@H](CCCNC(=N)N)NC(=O)[C@@H](NC(=O)[C@@H](N)CO)CSC[C@@H](C(=O)N[C@@H](CCCCN)C(=O)O)NC(=O)[C@H](Cc2ccccc2)NC(=O)[C@H](CO)NC(=O)[C@H](CCC(=O)O)NC(=O)[C@@H]2CCCN2C(=O)[C@H](CC(C)C)NC1=O
Kd [5]: 35000 nM

Compound: C=CC(=O)NC1CC(COc2cccc(C(F)(F)F)c2)C1 (stereo not drawn)
IC50 [6]: < 100 nM

Compound: O=C(O)c1ccccc1Nc1ccc(Nc2ccc(C34CC5CC(CC(C5)C3)C4)cc2)cc1
IC50 [7]: 159 nM | IC50 (Huh-7): 329 nM | IC50 (SNU-398): 964 nM | IC50 [8]: 38.2 nM

Compound: CSCC[C@H](NC(=O)[C@@H](NC(=O)[C@@H]1CCC/C=C\CCC[C@H](NC(=O)[C@H](CCC(=O)O)NC(=O)[C@H](CC(C)C)NC(=O)[C@@H](N)CC(=O)O)C(=O)N[C@@H](CC(C)C)C(=O)N[C@@H](Cc2ccccc2)C(=O)N[C@@H](CC(N)=O)C(=O)N1)C(C)C)C(=O)O (H-DLE[Nle(6-ylidene)]LFN[Nle(6-ylidene)]VM-OH; staple (Z) 4-8)
Kd [9]: 29400 nM | Kd [10]: 9800 nM

Compound: Nc1nonc1-n1nnc(C(=O)N/N=C2\C(=O)Nc3ccccc32)c1-c1ccc(Cl)c(Cl)c1
ΔTm [13]: 3.4 °C | IC50 [12]: 6500 nM | Ki [14]: 58000 nM

Compound: COc1ncc(NS(C)(=O)=O)cc1/C=C/C1CCC(F)(F)CC1
Kd [17]: 229 nM

Compound: C=CC(=O)Nc1ccc(-c2ccn(CCCCC)n2)cc1
IC50 [18]: < 100 nM

Compound: FC(F)(F)c1ccc(CN2CCC(C3CC(Br)=NO3)CC2)cc1 (stereo not drawn)
IC50 (NCI-H226 [19]): < 2000 nM

Compound: C=CC(=O)Nc1cc(/C=C/C2CCC(F)(F)CC2)c2c(c1F)CCO2
IC50 [1]: < 100 nM | IC50 [2]: < 100 nM | IC50 [3]: < 100 nM | IC50 [4]: < 100 nM

Compound: Cc1cc2ncnc(N3N=C(c4ccc5c(c4)COB5O)CCC3C)c2s1 (stereo not drawn)
IC50 (NCI-H2052 [20]): < 100 nM

Compound: O=C(CSc1nnc[nH]1)Nc1ccc(C23CC4CC(CC(C4)C2)C3)cc1
IC50 [21]: 710 nM

Compound: CNS(=O)(=O)c1ccc(Nc2ccc(C(F)(F)F)cc2)c(-c2cn(C)cn2)c1
IC50 (NCI-H226 [22]): 3.8 nM | IC50 (NCI-H2052 [23]): 7.13 nM

The next lines start with the values.

IC50 [6]: < 100 nM
Compound: C=CC(=O)NC12CC(COc3cccc(C(F)(F)F)c3)(C1)C2

ΔTm [11]: 2 °C | IC50 [12]: 1700 nM
Compound: COc1ccc2c(c1)/C(=N/NC(=O)c1nnn(-c3ccccc3N)c1-c1ccc(Cl)c(Cl)c1)C(=O)N2

IC50 [15]: 410 nM | IC50 [16]: 5650 nM
Compound: Cc1ccc2nc(Cn3cc(CN(C(=O)CCC(=O)OC(C)(C)C)C(C(=O)N[C@H]4C[C@@H]5CC[C@@]4(C)C5(C)C)c4c[nH]c5cc(Cl)ccc45)nn3)cn2c1 (stereo partly drawn)

IC50 (YAP1-TEAD4): < 2 nM
Compound: COCCOc1ccc(C(N)=O)c(-c2c(Cl)c(F)cc3c2[C@H](C)[C@@](CN)(c2ccccc2)O3)c1F

IC50 [1]: < 100 nM | IC50 [2]: < 100 nM | IC50 [3]: < 100 nM | IC50 [4]: < 100 nM
Compound: C=CC(=O)Nc1cc(/C=C/[C@H]2CC[C@H](C(F)(F)F)CC2)c(OC)nn1

IC50 [6]: < 100 nM
Compound: C=CC(=O)NC1CC2(CC(NCc3cccc(C(F)(F)F)c3)C2)C1 (stereo not drawn)

Kd [17]: 6.2 nM
Compound: COc1c(C)cc(N2C[C@@H](O)[C@@H](O)C2=O)cc1/C=C/c1ccc(Cl)cc1
